Literature values in PubChem BioAssay AID1259409 (Chemical Carcinogenesis Research Information System (CCRIS), 2018).
“And” between values parts separate entries of the source, which are not always exact repeats. Equal entries are not always repeated.

System: rodent chemically induced tumor inhibition, incidence and multiplicity
Assay: CCRIS tumor inhibitor studies
Conditions: Species: RAT

In the case of `COc1ccc2c(c1)c(CC(=O)O)c(C)n2C(=O)c1ccc(Cl)cc1`, the “tumour outcome (control, treated, inhibition, significance)” value (Carcinogen: DIETHYLNITROSAMINE, 55-18-5, N-METHYL-N-NITROSOUREA, 684-93-5, N-BUTYL-N-(4-HYDROXYBUTYL)NITROSAMINE, 3817-11-6, 1,2-DIM, Carcinogen: DIETHYLNITROSAMINE, 55-18-5, N-METHYL-N-NITROSOUREA, 684-93-5, N-BUTYL-N-(4-HYDROXYBUTYL)NITROSAMINE, 3817-11-6, 1,2-DIM, Dose [Inhibitor]: 0, 20 PPM IN DRINKING WATER FOR 23 WK BEGINNING 1 WK POST CARCINOGEN TREATMENT (STUDY DURATION: 28 WK), Route [Inhibitor]: ORAL, Strain/Sex: F344/MALE, Target Tissue: Type of Lesion: LARGE INTESTINE: ADENOCARCINOMA, Dose [Carcinogen]: 100 MG/KG BW DEN ONCE, 20 MG/KG BW MNU ONCE ON DAYS 6,9, AND 12, 0.05% BBN IN DRINKING WATER FOR FIRST TWO WK, 40 MG/KG, Dose [Carcinogen]: 100 MG/KG BW DEN ONCE, 20 MG/KG BW MNU ONCE ON DAYS 6,9, AND 12, 0.05% BBN IN DRINKING WATER FOR FIRST TWO WK, 40 MG/KG, Promoter: NONE USED) is listed as 2/20 (10%), 0/19 (0%), 100%, not significant, the “tumour outcome (control, treated, inhibition, significance)” value (Carcinogen: DIETHYLNITROSAMINE, 55-18-5, N-METHYL-N-NITROSOUREA, 684-93-5, N-BUTYL-N-(4-HYDROXYBUTYL)NITROSAMINE, 3817-11-6, 1,2-DIM, Carcinogen: DIETHYLNITROSAMINE, 55-18-5, N-METHYL-N-NITROSOUREA, 684-93-5, N-BUTYL-N-(4-HYDROXYBUTYL)NITROSAMINE, 3817-11-6, 1,2-DIM, Dose [Inhibitor]: 0, 20 PPM IN DRINKING WATER FOR 23 WK BEGINNING 1 WK POST CARCINOGEN TREATMENT (STUDY DURATION: 28 WK), Route [Inhibitor]: ORAL, Strain/Sex: F344/MALE, Target Tissue: Type of Lesion: LARGE INTESTINE: ADENOMA, Dose [Carcinogen]: 100 MG/KG BW DEN ONCE, 20 MG/KG BW MNU ONCE ON DAYS 6,9, AND 12, 0.05% BBN IN DRINKING WATER FOR FIRST TWO WK, 40 MG/KG, Dose [Carcinogen]: 100 MG/KG BW DEN ONCE, 20 MG/KG BW MNU ONCE ON DAYS 6,9, AND 12, 0.05% BBN IN DRINKING WATER FOR FIRST TWO WK, 40 MG/KG, Promoter: NONE USED) is listed as 3/20 (15%), 0/19 (0%), 100%, not significant and the “tumour outcome (control, treated, inhibition, significance)” value (Carcinogen: DIETHYLNITROSAMINE, 55-18-5, N-METHYL-N-NITROSOUREA, 684-93-5, N-BUTYL-N-(4-HYDROXYBUTYL)NITROSAMINE, 3817-11-6, 1,2-DIM, Carcinogen: DIETHYLNITROSAMINE, 55-18-5, N-METHYL-N-NITROSOUREA, 684-93-5, N-BUTYL-N-(4-HYDROXYBUTYL)NITROSAMINE, 3817-11-6, 1,2-DIM, Dose [Inhibitor]: 0, 20 PPM IN DRINKING WATER FOR 23 WK BEGINNING 1 WK POST CARCINOGEN TREATMENT (STUDY DURATION: 28 WK), Route [Inhibitor]: ORAL, Strain/Sex: F344/MALE, Target Tissue: Type of Lesion: LIVER: HEPATOCELLULAR ADENOMA, HYPERPLASTIC NODULE, Dose [Carcinogen]: 100 MG/KG BW DEN ONCE, 20 MG/KG BW MNU ONCE ON DAYS 6,9, AND 12, 0.05% BBN IN DRINKING WATER FOR FIRST TWO WK, 40 MG/KG, Dose [Carcinogen]: 100 MG/KG BW DEN ONCE, 20 MG/KG BW MNU ONCE ON DAYS 6,9, AND 12, 0.05% BBN IN DRINKING WATER FOR FIRST TWO WK, 40 MG/KG, Promoter: NONE USED) is listed as 2/20 (10%), 7/19 (37%), -270%, not significant. The outcome (Carcinogen: DIETHYLNITROSAMINE, 55-18-5, N-METHYL-N-NITROSOUREA, 684-93-5, N-BUTYL-N-(4-HYDROXYBUTYL)NITROSAMINE, 3817-11-6, 1,2-DIM, Carcinogen: DIETHYLNITROSAMINE, 55-18-5, N-METHYL-N-NITROSOUREA, 684-93-5, N-BUTYL-N-(4-HYDROXYBUTYL)NITROSAMINE, 3817-11-6, 1,2-DIM, Dose [Inhibitor]: 0, 20 PPM IN DRINKING WATER FOR 23 WK BEGINNING 1 WK POST CARCINOGEN TREATMENT (STUDY DURATION: 28 WK), Route [Inhibitor]: ORAL, Strain/Sex: F344/MALE, Target Tissue: Type of Lesion: LIVER: HEPATOCELLULAR ADENOMA, Dose [Carcinogen]: 100 MG/KG BW DEN ONCE, 20 MG/KG BW MNU ONCE ON DAYS 6,9, AND 12, 0.05% BBN IN DRINKING WATER FOR FIRST TWO WK, 40 MG/KG, Dose [Carcinogen]: 100 MG/KG BW DEN ONCE, 20 MG/KG BW MNU ONCE ON DAYS 6,9, AND 12, 0.05% BBN IN DRINKING WATER FOR FIRST TWO WK, 40 MG/KG, Promoter: NONE) was 0/20 (0%), 0/19 (0%), 0%, not significant, the “tumour outcome (control, treated, inhibition, significance)” value (Carcinogen: DIETHYLNITROSAMINE, 55-18-5, N-METHYL-N-NITROSOUREA, 684-93-5, N-BUTYL-N-(4-HYDROXYBUTYL)NITROSAMINE, 3817-11-6, 1,2-DIM, Carcinogen: DIETHYLNITROSAMINE, 55-18-5, N-METHYL-N-NITROSOUREA, 684-93-5, N-BUTYL-N-(4-HYDROXYBUTYL)NITROSAMINE, 3817-11-6, 1,2-DIM, Dose [Inhibitor]: 0, 20 PPM IN DRINKING WATER FOR 23 WK BEGINNING 1 WK POST CARCINOGEN TREATMENT (STUDY DURATION: 28 WK), Route [Inhibitor]: ORAL, Strain/Sex: F344/MALE, Target Tissue: Type of Lesion: LUNG: ADENOCARCINOMA, Dose [Carcinogen]: 100 MG/KG BW DEN ONCE, 20 MG/KG BW MNU ONCE ON DAYS 6,9, AND 12, 0.05% BBN IN DRINKING WATER FOR FIRST TWO WK, 40 MG/KG, Dose [Carcinogen]: 100 MG/KG BW DEN ONCE, 20 MG/KG BW MNU ONCE ON DAYS 6,9, AND 12, 0.05% BBN IN DRINKING WATER FOR FIRST TWO WK, 40 MG/KG, Promoter: NONE UESD) was 1/20 (5%), 0/19 (0%), 100%, not significant and the “tumour outcome (control, treated, inhibition, significance)” value (Carcinogen: DIETHYLNITROSAMINE, 55-18-5, N-METHYL-N-NITROSOUREA, 684-93-5, N-BUTYL-N-(4-HYDROXYBUTYL)NITROSAMINE, 3817-11-6, 1,2-DIM, Carcinogen: DIETHYLNITROSAMINE, 55-18-5, N-METHYL-N-NITROSOUREA, 684-93-5, N-BUTYL-N-(4-HYDROXYBUTYL)NITROSAMINE, 3817-11-6, 1,2-DIM, Dose [Inhibitor]: 0, 20 PPM IN DRINKING WATER FOR 23 WK BEGINNING 1 WK POST CARCINOGEN TREATMENT (STUDY DURATION: 28 WK), Route [Inhibitor]: ORAL, Strain/Sex: F344/MALE, Target Tissue: Type of Lesion: LUNG: ADENOMA, Dose [Carcinogen]: 100 MG/KG BW DEN ONCE, 20 MG/KG BW MNU ONCE ON DAYS 6,9, AND 12, 0.05% BBN IN DRINKING WATER FOR FIRST TWO WK, 40 MG/KG, Dose [Carcinogen]: 100 MG/KG BW DEN ONCE, 20 MG/KG BW MNU ONCE ON DAYS 6,9, AND 12, 0.05% BBN IN DRINKING WATER FOR FIRST TWO WK, 40 MG/KG, Promoter: NONE USED) was 8/20 (40%), 2/19 (11%), 73%, p<0.05. The “tumour outcome (control, treated, inhibition, significance)” value (Carcinogen: DIETHYLNITROSAMINE, 55-18-5, N-METHYL-N-NITROSOUREA, 684-93-5, N-BUTYL-N-(4-HYDROXYBUTYL)NITROSAMINE, 3817-11-6, 1,2-DIM, Carcinogen: DIETHYLNITROSAMINE, 55-18-5, N-METHYL-N-NITROSOUREA, 684-93-5, N-BUTYL-N-(4-HYDROXYBUTYL)NITROSAMINE, 3817-11-6, 1,2-DIM, Dose [Inhibitor]: 0, 20 PPM IN DRINKING WATER FOR 23 WK BEGINNING 1 WK POST CARCINOGEN TREATMENT (STUDY DURATION: 28 WK), Route [Inhibitor]: ORAL, Strain/Sex: F344/MALE, Target Tissue: Type of Lesion: THYROID: FOLLICULAR ADENOMA, Dose [Carcinogen]: 100 MG/KG BW DEN ONCE, 20 MG/KG BW MNU ONCE ON DAYS 6,9, AND 12, 0.05% BBN IN DRINKING WATER FOR FIRST TWO WK, 40 MG/KG, Dose [Carcinogen]: 100 MG/KG BW DEN ONCE, 20 MG/KG BW MNU ONCE ON DAYS 6,9, AND 12, 0.05% BBN IN DRINKING WATER FOR FIRST TWO WK, 40 MG/KG, Promoter: NONE USED) was 6/20 (30%), 2/19 (11%), 63%, not significant and 1/20 (5%), 1/19 (5%), 0%, not significant, the “tumour outcome (control, treated, inhibition, significance)” value (Carcinogen: DIETHYLNITROSAMINE, 55-18-5, N-METHYL-N-NITROSOUREA;684-93-5, N-BUTYL-N-(4-HYDROXYBUTYL)NITROSAMINE, 3817-11-6, 1,2-DIME, Carcinogen: DIETHYLNITROSAMINE, 55-18-5, N-METHYL-N-NITROSOUREA;684-93-5, N-BUTYL-N-(4-HYDROXYBUTYL)NITROSAMINE, 3817-11-6, 1,2-DIME, Dose [Inhibitor]: 0, 20 PPM IN DRINKING WATER FOR 23 WK BEGINNING 1 WK POST CARCINOGEN TREATMENT (STUDY DURATION: 28 WK), Route [Inhibitor]: ORAL, Strain/Sex: F344/MALE, Target Tissue: Type of Lesion: SMALL INTESTINE: ADENOMA, Dose [Carcinogen]: 100 MG/KG BW DEN ONCE, 20 MG/KG BW MNU ONCE ON DAYS 6,9, AND 12, 0.05% BBN IN DRINKING WATER FOR FIRST TWO WK, 40 MG/KG, Dose [Carcinogen]: 100 MG/KG BW DEN ONCE, 20 MG/KG BW MNU ONCE ON DAYS 6,9, AND 12, 0.05% BBN IN DRINKING WATER FOR FIRST TWO WK, 40 MG/KG, Promoter: NONE USED) was 5/20 (25%), 0/19 (0%), 100%, p<0.05 and the “tumour outcome (control, treated, inhibition, significance)” value (Carcinogen: DIETHYLNITROSAMINE, 55-18-5, N-METHYL-N-NITROSOUREA, 684-93-5, N-METHYL-N-(4-HYDROXYBUTYL)NITROSAMINE, 3817-11-6, 1,2-DI, Carcinogen: DIETHYLNITROSAMINE, 55-18-5, N-METHYL-N-NITROSOUREA, 684-93-5, N-METHYL-N-(4-HYDROXYBUTYL)NITROSAMINE, 3817-11-6, 1,2-DI, Dose [Inhibitor]: 0, 20 PPM IN DRINKING WATER FOR 23 WK BEGINNING 1 WK POST CARCINOGEN TREATMENT (STUDY DURATION: 28 WK), Route [Inhibitor]: ORAL, Strain/Sex: F344/MALE, Target Tissue: Type of Lesion: SMALL INTESTINE: ADENOCARCINOMA, Dose [Carcinogen]: 100 MG/KG BW DEN ONCE, 20 MG/KG BW MNU ONCE ON DAYS 6,9, AND 12, 0.05% BBN IN DRINKING WATER FOR FIRST TWO WK, 40 MG/KG, Dose [Carcinogen]: 100 MG/KG BW DEN ONCE, 20 MG/KG BW MNU ONCE ON DAYS 6,9, AND 12, 0.05% BBN IN DRINKING WATER FOR FIRST TWO WK, 40 MG/KG, Promoter: NONE USED) was 2/20 (10%), 0/19 (0%), 100%, not significant. The “tumour outcome (control, treated, inhibition, significance)” value (Carcinogen: METHYLAZOXYMETHANOL, 590-96-5, Dose [Inhibitor]: 7.5 MG/KG BW DAILY FOR 3 WK STARTING 27 WK AFTER THE START OF CARCINOGEN TREATMENT (STUDY DURATION: 30 WK), Route [Inhibitor]: INTRARECTAL, Strain/Sex: DONRYU/MALE, Target Tissue: Type of Lesion: LARGE INTESTINE: ADENOCARCINOMA, Dose [Carcinogen]: 20 MG/KG BW 1/WK FOR 6 WK, Promoter: NONE USED) was 19/23 (83%), 15/30 (50%), 40%, p<0.05.
